This passage reports solubility in ethanol results from patent US8742129B2, “Crystalline forms of febuxostat” (Teva Pharmaceuticals Industries Ltd., priority 2009, dated 2014).

The data set in a line: Solubility in ethanol of crystalline forms. The data set is classed as physicochemical. The conditions noted are these: compared to other crystalline forms.

`Cc1nc(-c2ccc(OCC(C)C)c(C#N)c2)sc1C(=O)O` [Febuxostat form F10, 2-(3-cyano-4-isobutyloxyphenyl)-4-methylthiazole-5-carboxylic acid]: the solubility in ethanol result is “better solubility in ethanol compared to other crystalline forms”.
